Laboratory results from patent US8865623B2, “Herbicidally active cyclic diones and derivatives thereof, processes for their preparation, compositions, and method of controlling weeds” (Syngenta Limited, priority 2009, dated 2014).

Columns and labels:
Assay type in all cases: in vivo
[1] = test system: Alopecurus myosuroides (ALOMY); assay: Pre-emergence herbicidal activity, glasshouse pot test; details: Alopecurus myosuroides, 312 h; Rate 250 g/ha; pre-emergence spray; evaluated after 13 days; read-out: Pre-emergence activity ALOMY (100=total damage to plant; 0=no damage to plant)
How it was run: (§1)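 Potted plants sprayed one day after sowing (pre-emergence) or after 8 days (post-emergence) with formulation in acetone/water (50:50) containing 0.5% Tween 20. Glasshouse at 24/16 °C, 14 h light, 65% humidity; damage scored after 13 days (0 none, 100 total).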

Lolium perenne (LOLPE) [2] = assay: as above; details: Lolium perenne, 312 h; Rate 250 g/ha; pre-emergence spray; evaluated after 13 days; read-out: Pre-emergence activity LOLPE (100=total damage to plant; 0=no damage to plant)
How it was run: as §1

Avena fatua (AVEFA) [3] = assay: as above; details: Avena fatua, 312 h; Rate 250 g/ha; pre-emergence spray; evaluated after 13 days; read-out: Pre-emergence activity AVEFA (100=total damage to plant; 0=no damage to plant)
How it was run: as §1

[4] = test system: Echinochloa crus-galli (ECHCG); assay: as above; details: Echinochloa crus-galli, 312 h; Rate 250 g/ha; pre-emergence spray; evaluated after 13 days; read-out: Pre-emergence activity ECHCG (100=total damage to plant; 0=no damage to plant)
How it was run: as §1

[5] = test system: Alopecurus myosuroides (ALOMY); assay: Post-emergence herbicidal activity, glasshouse pot test; details: Alopecurus myosuroides, 312 h, rate 250 g/ha, evaluated after 13 days, glasshouse, read-out: Post-emergence activity ALOMY (100=total damage to plant; 0=no damage to plant)
How it was run: as §1

Lolium perenne (LOLPE) [6] = assay: as above; details: Lolium perenne, 312 h, rate 250 g/ha, evaluated after 13 days, glasshouse, read-out: Post-emergence activity LOLPE (100=total damage to plant; 0=no damage to plant)
How it was run: as §1

Avena fatua (AVEFA) [7] = assay: as above; details: Avena fatua, 312 h, rate 250 g/ha, evaluated after 13 days, glasshouse, read-out: Post-emergence activity AVEFA (100=total damage to plant; 0=no damage to plant)
How it was run: as §1

[8] = test system: Echinochloa crus-galli (ECHCG); assay: as above; details: Echinochloa crus-galli, 312 h, rate 250 g/ha, evaluated after 13 days, glasshouse, read-out: Post-emergence activity ECHCG (100=total damage to plant; 0=no damage to plant)
How it was run: as §1

Row | Structure (SMILES) | pest or weed control at 250 g/ha [1] [%] | pest or weed control at 250 g/ha (Lolium perenne (LOLPE) [2]) [%] | pest or weed control at 250 g/ha (Avena fatua (AVEFA) [3]) [%] | pest or weed control at 250 g/ha [4] [%] | pest or weed control at 250 g/ha [5] [%] | pest or weed control at 250 g/ha (Lolium perenne (LOLPE) [6]) [%] | pest or weed control at 250 g/ha (Avena fatua (AVEFA) [7]) [%] | pest or weed control at 250 g/ha [8] [%]
1 | CCc1ccc(Oc2ccc(C#N)c(Cl)c2)cc1C1=C(O)C(C)(C)OC(C)(C)C1=O [Example A-75] | 100 | 100 | 80 | 100 | 100 | 100 | 90 | 100
2 | CCc1ccc(Oc2ccc(C#N)c(C(F)(F)F)c2)cc1C1=C(O)C(C)(C)OC(C)(C)C1=O [Example A-76] | 70 | 60 | 80 | 100 | 80 | 70 | 70 | 100
3 | CCc1ccc(Oc2ccc(C#N)c(C#N)c2)cc1C1=C(O)C(C)(C)OC(C)(C)C1=O [Example A-77] | 40 | 30 | 20 | 70 | 60 | 30 | 30 | 70
4 | CCc1ccc(Oc2ccc(C(F)(F)F)cc2Br)cc1C1=C(O)C(C)(C)OC(C)(C)C1=O [Example A-78] | 100 | 100 | 80 | 100 | 100 | 90 | 90 | 90
5 | CCc1ccc(Oc2ccc(C#N)cc2)cc1C1=C(O)C(C)(C)OC(C)(C)C1=O [Example A-79] | 80 | 90 | 80 | 100 | 100 | 80 | 60 | 100
6 | CCc1ccc(Oc2nc(C)c(Cl)c(N)n2)cc1C1=C(O)C(C)(C)OC(C)(C)C1=O [Example A-81] | 30 | 40 | 10 | 90 | 50 | 30 | 50 | 70
7 | CCc1ccc(Oc2cnc3cc(Cl)ccc3n2)cc1C1=C(O)CC(C)(C)CC1=O [Example A-82] | 70 | 100 | 90 | 100 | 100 | 90 | 100 | 100
8 | CCc1ccc(Oc2ccc(C(F)(F)F)cn2)cc1C1=C(O)CC(C)(C)CC1=O [Example A-83] | 70 | 90 | 90 | 100 | 90 | 60 | 100 | 100
9 | CCc1ccc(Oc2ncc(Cl)cc2Cl)cc1C1=C(O)CC(C)(C)CC1=O [Example A-84] | 70 | 100 | 60 | 100 | 100 | 90 | 50 | 100
10 | CCc1ccc(Oc2ncc(Cl)cc2F)cc1C1=C(O)CC(C)(C)CC1=O [Example A-85] | 100 | 100 | 100 | 100 | 100 | 90 | 90 | 100
11 | CCc1ccc(Oc2ncc(C(F)(F)F)cc2Cl)cc1C1=C(O)CC(C)(C)CC1=O [Example A-86] | 90 | 100 | 100 | 100 | 90 | 70 | 100 | 100
12 | CCc1ccc(Oc2ccc(C#N)cc2F)cc1C1=C(O)CC(C)(C)CC1=O [Example A-87] | 30 | 40 | 20 | 60 | 70 | 40 | 40 | 80
13 | CCc1ccc(Oc2ccc(C(F)(F)F)cc2)cc1C1=C(O)C(C)(C)OC(C)(C)C1=O [Example A-97] | 80 | 100 | 90 | 100 | 100 | 90 | 90 | 100
14 | CCc1ccc(Oc2cc(Cl)ncn2)cc1C1=C(O)C(C)(C)OC(C)(C)C1=O [Example A-98] | 40 | 60 | 20 | 80 | 70 | 30 | 60 | 100
15 | CCc1ccc(Oc2ccc(C(F)(F)F)cc2Cl)cc1C1=C(O)C(C)(C)OC(C)(C)C1=O [Example A-99] | 60 | 100 | 30 | 100 | 80 | 80 | 90 | 100
16 | CCc1ccc(Oc2ccc(C(F)(F)F)cc2C#N)cc1C1=C(O)C(C)(C)OC(C)(C)C1=O [Example A-100] | 40 | 80 | 40 | 100 | 80 | 40 | 80 | 90
17 | CCc1ccc(Oc2ccc(C(F)(F)F)c(Cl)c2)cc1C1=C(O)C(C)(C)OC(C)(C)C1=O [Example A-101] | 60 | 90 | 80 | 90 | 100 | 100 | 90 | 100
18 | CCc1ccc(Oc2cncc(Cl)n2)cc1C1=C(O)C(C)(C)OC(C)(C)C1=O [Example A-102] | 0 | 20 | 0 | 10 | 10 | 20 | 0 | 40
19 | CCc1ccc(Oc2nccnc2Cl)cc1C1=C(O)C(C)(C)OC(C)(C)C1=O [Example A-103] | 10 | 40 | 0 | 30 | 10 | 20 | 0 | 40
20 | CCc1ccc(Oc2cnc3ccc(Br)cc3n2)cc1C1=C(O)C(C)(C)OC(C)(C)C1=O [Example A-104] | 90 | 100 | 30 | 100 | 90 | 90 | 80 | 100
21 | CCc1ccc(Oc2nc3ccccc3s2)cc1C1=C(O)C(C)(C)OC(C)(C)C1=O [Example A-105] | 70 | 100 | 10 | 100 | 90 | 90 | 10 | 90
